From ChEMBL document CHEMBL6182948 (J Med Chem, 2025)

How the values were obtained:
Cytochrome P450 1B1 = molecular target: T1, Cytochrome P450 1B1 (Homo sapiens, UniProt Q16678); test: Inhibition of human recombinant CYP1B1 using 7-ethoxyresorufin as substrate incubated under dark condition for 30 mins in presence of NADPH by EROD fluorescence assay; type: ADME
T1 sequence (Q16678 whole entry): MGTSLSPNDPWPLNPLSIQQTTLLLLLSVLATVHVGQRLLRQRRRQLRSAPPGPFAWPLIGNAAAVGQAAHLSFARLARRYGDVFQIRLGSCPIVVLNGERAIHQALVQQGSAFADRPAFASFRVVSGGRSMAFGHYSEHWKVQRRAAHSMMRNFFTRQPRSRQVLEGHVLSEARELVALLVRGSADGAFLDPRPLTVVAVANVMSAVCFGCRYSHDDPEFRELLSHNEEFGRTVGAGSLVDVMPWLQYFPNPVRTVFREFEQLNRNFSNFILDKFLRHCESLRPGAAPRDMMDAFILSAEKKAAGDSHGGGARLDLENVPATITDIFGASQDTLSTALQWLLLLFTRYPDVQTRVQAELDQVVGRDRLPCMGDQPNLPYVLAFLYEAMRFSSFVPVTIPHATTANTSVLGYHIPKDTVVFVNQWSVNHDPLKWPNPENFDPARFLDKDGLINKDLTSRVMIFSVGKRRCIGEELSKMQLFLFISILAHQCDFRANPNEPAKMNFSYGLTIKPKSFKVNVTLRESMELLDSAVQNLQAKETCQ

CYP1B1 = molecular target: T2, CYP1B1 (Homo sapiens, UniProt Q16678); test: Inhibition of human recombinant CYP1B1 using 7-ethoxyresorufin as substrate at 100 uM incubated under dark condition for 30 mins in presence of NADPH by EROD fluorescence assay relative to control; type: ADME; conditions: recombinant CYP1B1, probe 7-ethoxyresorufin
T2 sequence (Q16678 whole entry): T1 sequence (Q16678 whole entry)

Cytochrome P450 1A1 = molecular target: T3, Cytochrome P450 1A1 (Homo sapiens, UniProt P04798); test: Inhibition of human recombinant CYP1A1 using 7-ethoxyresorufin as substrate incubated under dark condition for 15 mins in presence of NADPH by EROD fluorescence assay; type: ADME
T3 sequence (P04798 whole entry): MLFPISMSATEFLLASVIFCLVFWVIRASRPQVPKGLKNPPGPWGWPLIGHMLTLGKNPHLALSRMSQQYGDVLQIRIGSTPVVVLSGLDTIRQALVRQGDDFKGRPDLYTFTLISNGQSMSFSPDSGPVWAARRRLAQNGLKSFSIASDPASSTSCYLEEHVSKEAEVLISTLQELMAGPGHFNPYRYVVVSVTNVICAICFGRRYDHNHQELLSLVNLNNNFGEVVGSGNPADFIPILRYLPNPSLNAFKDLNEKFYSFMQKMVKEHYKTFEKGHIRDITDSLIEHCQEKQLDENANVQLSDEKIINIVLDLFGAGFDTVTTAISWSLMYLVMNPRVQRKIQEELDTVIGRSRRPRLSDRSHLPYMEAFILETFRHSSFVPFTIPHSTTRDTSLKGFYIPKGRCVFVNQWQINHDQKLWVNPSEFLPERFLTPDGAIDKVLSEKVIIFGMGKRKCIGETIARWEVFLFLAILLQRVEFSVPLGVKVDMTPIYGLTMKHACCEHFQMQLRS

Cytochrome P450 1A2 = molecular target: T4, Cytochrome P450 1A2 (Homo sapiens, UniProt P05177); test: Inhibition of human recombinant CYP1A2 using 7-ethoxyresorufin as substrate incubated under dark condition for 45 mins in presence of NADPH by EROD fluorescence assay; type: ADME
T4 sequence (P05177 whole entry): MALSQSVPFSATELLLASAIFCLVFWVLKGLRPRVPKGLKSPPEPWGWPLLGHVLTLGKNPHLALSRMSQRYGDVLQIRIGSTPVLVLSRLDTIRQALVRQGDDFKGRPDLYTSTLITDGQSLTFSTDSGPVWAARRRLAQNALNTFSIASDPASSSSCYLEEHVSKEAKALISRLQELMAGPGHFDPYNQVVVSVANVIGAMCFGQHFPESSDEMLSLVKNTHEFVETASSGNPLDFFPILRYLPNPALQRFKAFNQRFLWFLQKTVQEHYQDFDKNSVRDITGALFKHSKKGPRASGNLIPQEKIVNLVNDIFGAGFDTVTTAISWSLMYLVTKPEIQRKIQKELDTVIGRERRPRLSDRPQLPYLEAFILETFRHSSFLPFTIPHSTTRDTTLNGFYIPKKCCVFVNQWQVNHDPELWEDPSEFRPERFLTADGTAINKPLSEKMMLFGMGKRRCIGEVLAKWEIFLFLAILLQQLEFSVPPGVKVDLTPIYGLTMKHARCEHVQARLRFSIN

Homo sapiens [1] = organism: Homo sapiens; test: Selectivity index, ratio of IC50 for human recombinant CYP1A1 to IC50 for human recombinant CYP1B1 using 7-ethoxyresorufin as substrate
Homo sapiens [2] = organism: Homo sapiens; test: Selectivity index, ratio of IC50 for human recombinant CYP1A2 to IC50 for human recombinant CYP1B1 using 7-ethoxyresorufin as substrate

| Structure (SMILES) | IC50 (Cytochrome P450 1B1) [nM] | inhibition at 0.5 h, 100 µM (CYP1B1) [%] | IC50 (Cytochrome P450 1A1) [nM] | IC50 (Cytochrome P450 1A2) [nM] | Ratio IC50 (Homo sapiens [1]) | Ratio IC50 (Homo sapiens [2]) |
| --- | --- | --- | --- | --- | --- | --- |
| COc1ccc(NC(=O)c2nc(-c3ccccc3)cs2)c(OC)c1 | 25.2 | 89.3 | 785 | 438 | 31.1 |  |
| O=C(Nc1cc(Cl)cc(Cl)c1)c1nc(-c2ccccc2)cs1 | 3.36 | 102 | 223 | 712 | 66.2 | 212 |
| COc1cc(Cl)cc(NC(=O)c2nc(-c3ccccc3)cs2)c1 | 17.3 | 96.5 | 230 | 619 | 13.3 | 35.9 |
| O=C(Nc1ccc(I)cc1)c1nc(-c2ccccc2)cs1 | 0.4 | 100 | 164 | 151 | 410 | 377 |
| O=C(Nc1ccc(Cl)cc1)c1nc(-c2ccccc2)cs1 | 1.18 | 102 | 213 | 386 | 180 | 327 |
| O=C(Nc1ccc(OC(F)(F)F)cc1)c1nc(-c2ccccc2)cs1 | 7.45 | 92.2 | 213 | 472 | 28.6 | 63.4 |
| O=C(Nc1ccc(-c2ccccc2)cc1)c1nc(-c2ccccc2)cs1 |  | 21.2 |  |  |  |  |
| O=C(Nc1ccc(C(F)(F)F)cc1)c1nc(-c2ccccc2)cs1 | 0.47 | 99.5 | 450 | 450 | 951 | 952 |
| O=C(Nc1cccc(Cl)c1)c1nc(-c2ccccc2)cs1 |  | 77.4 |  |  |  |  |
| O=C(Nc1ccc(Cl)cc1Cl)c1nc(-c2ccccc2)cs1 | 3.57 | 102 | 251 | 488 | 70.3 | 137 |
| O=C(Nc1ccc(-n2ccnc2)cc1)c1nc(-c2ccccc2)cs1 | 1.49 | 102 | 10.8 | 2.4 | 7.2 | 1.6 |
| Cc1ccc(NC(=O)c2nc(-c3ccccc3)cs2)cc1 | 37 | 94.2 | 977 | 1000 | 26.4 | 27.1 |
| O=C(Nc1cc(Cl)ccc1Cl)c1nc(-c2ccccc2)cs1 | 10.1 | 96.2 | 208 | 80.9 | 20.5 | 8 |
| O=C(Nc1ccccc1F)c1nc(-c2ccccc2)cs1 |  | 69.6 |  |  |  |  |
| COc1ccc(OC)c(NC(=O)c2nc(-c3ccccc3)cs2)c1 | 22 | 91.2 | 404 | 611 | 18.4 | 27.8 |
| O=C(Nc1cccc(F)c1)c1nc(-c2ccccc2)cs1 | 23.9 | 82.2 | 215 | 465 | 9 | 19.4 |
| O=C(Nc1ccc(OC(F)F)cc1)c1nc(-c2ccccc2)cs1 | 0.26 | 100 | 210 | 679 | 808 | 2610 |
| N#Cc1ccc(NC(=O)c2nc(-c3ccccc3)cs2)cc1 | 7.68 | 99.3 | 870 | 563 | 113 | 73.4 |
| COc1cc(NC(=O)c2nc(-c3ccccc3)cs2)cc(OC)c1 | 4.65 | 87.4 | 621 | 724 | 134 | 156 |
| O=C(Nc1ccc(F)cc1)c1nc(-c2ccccc2)cs1 | 24 | 86.7 | 280 | 221 | 11.7 | 9.2 |
| NC(=O)c1ccc(NC(=O)c2nc(-c3ccccc3)cs2)cc1 |  | 54.6 |  |  |  |  |
| O=C(Nc1ccc(N2CCOCC2)cc1)c1nc(-c2ccccc2)cs1 |  | 20.5 |  |  |  |  |
| COc1ccc(NC(=O)c2nc(-c3ccccc3)cs2)cc1 | 11.2 | 95 | 470 | 899 | 42 | 80.2 |
| O=C(Nc1ccc(C(F)F)cc1)c1nc(-c2ccccc2)cs1 | 2.39 | 99.9 | 1720 | 1070 | 721 | 447 |
| COc1cc(NC(=O)c2nc(-c3ccccc3)cs2)cc(OC)c1OC |  | 62.8 |  |  |  |  |
